Results on 17 molecules are retold here after patent US8207154B2, “Catatonic bacteriochlorophyll derivatives” (Yeda Research and Development Co., Ltd., priority 2005, dated 2012).

Where two headings read alike, the source gives them in different places.

The nature of data set [1]: Octanol/water partition ratio. Type of data set: physicochemical. The source says:
Optical absorption in water, λ (relative absorption): 753 (1.00), 519 (0.30), 354 (1.25) nm. Octanol/water partition ratio is 40/60. ESI-MS (+): 413.62 ([M-2×citrate]/2). Octanol/water partition ratio is 50/50. ESI-MS (+): 455.89 ([M-2×citrate]/2). Octanol/water partition ratio is 75/25.

The test system of another data set is H5V cells. Description: Phototoxicity assay (PDT efficacy at two incubation times), neutral red survival. In kind it is cell-based, mouse. The following applies: then 10 min illumination, 12 J/cm^2.
The target of the next data set is St. albus. Description: Phototoxicity on Gram-positive bacteria, colony counting. Type of data set: cell-based. Conditions: 1 h incubation, illuminated 15 min at 70 mW/cm^2; read-out: Kd (phototoxicity). On the procedure:
(§1) (ii) Bacterial cultures. Bacteria of strains St. albus and E. coli XL-1 were cultured in liquid LB medium (E. coli in LB containing 12.5 μg tetracyclin/ml) to a final density of OD600 nm=0.5-0.9 (1 OD=8×10^8 bacteria/ml). The bacteria were spun down (4000×g, 5 min.) and resuspended in PBS.
(§2) (b) Bacterial. To determine the photodynamic efficacy, bacteria were diluted to aliquots of 300 μl containing about 10^7 bacteria, and incubated with increasing concentrations of sensitizer in plastic test tubes in the dark for 1 h at room temperature, and then illuminated at 70 mW/cm^2 for 15 min. Samples of the treated bacteria cultures were subsequently plated at different dilutions (50-200 bacteria/plate) on LB agar and cultured for 24 h at 37° C. for determination of bacterial survival by colony counting. Triplicate determinations were conducted and representative experiments are shown.
(§3) The phototoxicity of positively-charged compound 5 was tested on Gram-positive St. albus and Gram-negative E. coli bacteria in comparison to the negatively-charged Pd 3^1-oxo-15-methoxycarbonylmethyl-Rhodobacteriochlorin 13^1-(2-sulfoethyl)amide dipotassium salt (described in PCT/IL03/00973). Bacteria were incubated with increasing concentrations of the sensitizers for 1 h and illuminated or kept in the dark. […] Gram-positive bacteria St. albus, was 100 times more sensitive to compound 5 than Gram-negative E. coli. No phototoxicity was observed when bacteria were incubated and treated with the same sensitizers' concentration range without illumination (dark controls).

For another data set, the system named is E. coli. As to the kind of experiment: Phototoxicity on Gram-negative bacteria, colony counting. In kind it is cell-based, E. coli XL-1. The following applies: 1 h incubation, illuminated. As to the method:
as §1, §2, §3

Where [2] appears, read: 15 min incubation in the dark, read-out: IC50 15 min.
Where [3] appears, read: 3 h incubation in the dark, read-out: IC50 3 hours.

With “3^1-Oxo-15-methoxycarbonylmethyl-Rhodobacteriochlorin 13^1,17^3-di(3-N^3-trimethylammoniumpropyl)amide dicitrate salt [Compound 7]”, in data set [1], the Octanol/water partition ratio is 50/50.

Turning to `CC(=O)O.CC[C@H]1C2=NC(=Cc3c(C(C)=O)c(C)c4[n]3[Pd][n]3c(c(C)c(C(=O)NCCCCN)c3=C(CC(=O)OC)C3=NC(=C4)[C@@H](C)[C@@H]3CCC(=O)NCC(O)CO)=C2)[C@@H]1C` (stereo partly drawn) [Compound 61, Palladium 3^1-oxo-15-methoxycarbonylmethyl-Rhodobacteriochlorin-13^1-(4-aminobutyl)amide-17^3-(2,3-dihydroxypropyl) amide], the IC50 (usually the concentration that inhibits the measured activity by half) in the data set with H5V cells (setting [2]) was found to be 690 nM; with H5V cells (setting [3]), 210 nM.

For the molecule `CC(=O)O.CCNCCNC(=O)c1c(C)c2[n]3c1=C(CC(=O)OC)C1=NC(=Cc4c(C)c(C(C)=O)c([n]4[Pd]3)C=C3N=C(C=2)[C@H](CC)[C@H]3C)[C@@H](C)[C@@H]1CCC(=O)NCC(O)CO` (stereo partly drawn) [Compound 63, Palladium 3^1-oxo-15-methoxycarbonylmethyl-Rhodobacteriochlorin-13^1-(2-N-ethylaminoethyl)amide-17^3-(2,3-dihydroxypropyl)amide], the figures for the concentration for half-maximal inhibition (IC50) with H5V cells (setting [2]) and with H5V cells (setting [3]) were 660 nM and 210 nM, respectively.

In the case of `CC(=O)O.CC[C@H]1C2=NC(=Cc3c(C(C)=O)c(C)c4[n]3[Pd][n]3c(c(C)c(C(=O)NCCCNC)c3=C(CC(=O)OC)C3=NC(=C4)[C@@H](C)[C@@H]3CCC(=O)NCC(O)CO)=C2)[C@@H]1C` (stereo partly drawn) [Compound 64, Palladium 3^1-oxo-15-methoxycarbonylmethyl-Rhodobacteriochlorin-13^1-(3-N-methylaminopropyl)amide-17^3-(2,3-dihydroxypropyl)amide], the 50% inhibitory concentration (IC50) came out at 560 nM with H5V cells (setting [2]) and 170 nM with H5V cells (setting [3]).

`CC(=O)O.CC[C@H]1C2=NC(=Cc3c(C(C)=O)c(C)c4[n]3[Pd][n]3c(c(C)c(C(=O)NCCN(C)C)c3=C(CC(=O)OC)C3=NC(=C4)[C@@H](C)[C@@H]3CCC(=O)NCCCO)=C2)[C@@H]1C` [Compound 66, Palladium 3^1-oxo-15-methoxycarbonylmethyl-Rhodobacteriochlorin-13^1-(2-N^2-dimethylaminoethyl)amide-17^3-(3-hydroxypropyl)amide]: the figures for the IC50 in the data set on H5V cells (setting [2]) and in the data set with H5V cells (setting [3]) were 550 nM and 200 nM, respectively.

Consider `CC(=O)O.CC[C@H]1C2=NC(=Cc3c(C(C)=O)c(C)c4[n]3[Pd][n]3c(c(C)c(C(=O)NCCN(C)C)c3=C(CC(=O)OC)C3=NC(=C4)[C@@H](C)[C@@H]3CCC(=O)NCC(C)O)=C2)[C@@H]1C` (stereo partly drawn) [Compound 67, Palladium 3^1-oxo-15-methoxycarbonylmethyl-Rhodobacteriochlorin-13^1-(2-N^2-dimethylaminoethyl)amide-17^3-(2-hydroxypropyl)amide], for which the results for the IC50 with H5V cells (setting [2]) and with H5V cells (setting [3]) were 500 nM and 180 nM, respectively.

For the molecule `CC(=O)O.CC[C@H]1C2=NC(=Cc3c(C(C)=O)c(C)c4[n]3[Pd][n]3c(c(C)c(C(=O)NCCN(C)C)c3=C(CC(=O)OC)C3=NC(=C4)[C@@H](C)[C@@H]3CCC(=O)NC[C@H](C)O)=C2)[C@@H]1C` [Compound 69, Palladium 3^1-oxo-15-methoxycarbonylmethyl-Rhodobacteriochlorin-13^1-(2-N^2-dimethylaminoethyl)amide-17^3-((S)-2-hydroxypropyl)amide], the IC50 with H5V cells (setting [2]) turned out to be 500 nM; with H5V cells (setting [3]) it was 160 nM.

For `CC(=O)O.CC(=O)O.CC[C@H]1C2=NC(=Cc3c(C(C)=O)c(C)c4[n]3[Pd][n]3c(c(C)c(C(=O)NCC(O)CO)c3=C(CC(=O)OC)C3=NC(=C4)[C@@H](C)[C@@H]3CCC(=O)NCCCCNc3ccccn3)=C2)[C@@H]1C` (stereo partly drawn) [Compound 74, Palladium 3^1-oxo-15-methoxycarbonylmethyl-Rhodobacteriochlorin-13^1-(2,3-dihydroxypropyl)amide-17^3-(4-N-(2′-pyridyl)aminobutyl)amide], the figures for the IC50 in the data set on H5V cells (setting [2]) and in the data set with H5V cells (setting [3]) were 740 nM and 290 nM, respectively.

As for `CCC1C2=Cc3c(C)c(C(=O)NCCS(=O)(=O)[O-])c4[n]3[Pd][n]3c(c(C)c(C(C)=O)c3=CC(=N2)C1C)=CC1=NC(=C4CC(=O)OC)C(CCC(=O)[O-])C1C.[K+].[K+]` (stereo not drawn) [Pd 3^1-oxo-15-methoxycarbonylmethyl-Rhodobacteriochlorin 13^1-(2-sulfoethyl)amide dipotassium salt, reference compound], the phototoxic killing concentration on St. albus is 300 nM. Besides, the “effectiveness against Gram-negative E. coli” value in the data set on E. coli was “not against Gram-negative E. coli”.

With “Palladium 3^1-oxo-15-methoxycarbonylmethyl-Rhodobacteriochlorin-13^1-(2,3-dihydroxypropyl)amide-17^3-(3-N-(2′-pyridyl)aminopropyl)amide [Compound 73]”, the IC50 with H5V cells (setting [2]) was 380 nM; with H5V cells (setting [3]), 300 nM.

As to “Palladium 3^1-oxo-15-methoxycarbonylmethyl-Rhodobacteriochlorin-13^1-(2-N-dimethylaminoethyl)amide-17^3-(2-hydroxy ethyl)amide [Compound 65]”, the results for the 50% inhibitory concentration (IC50) in the data set with H5V cells (setting [2]) and in the data set on H5V cells (setting [3]) were 430 nM and 220 nM, respectively.

Consider “Palladium 3^1-oxo-15-methoxycarbonylmethyl-Rhodobacteriochlorin-13^1-(2-N^2-diethylaminoethyl)amide-17^3-(2,3-dihydroxy propyl)amide [Compound 62]”, for which the IC50 in the data set with H5V cells (setting [2]) was found to be 630 nM; with H5V cells (setting [3]), 190 nM.

For “Palladium 3^1-oxo-15-methoxycarbonylmethyl-Rhodobacteriochlorin-13^1-(2-N^2-dimethylaminoethyl)amide-17^3-(2-(2-hydroxyethylamino)ethyl)amide [Compound 70]”, the IC50 came out at 550 nM with H5V cells (setting [2]) and 160 nM in the data set with H5V cells (setting [3]).

With “Palladium 3^1-oxo-15-methoxycarbonylmethyl-Rhodobacteriochlorin-13^1-(2-N^2-dimethylaminoethyl)amide-17^3-((R)-2-hydroxypropyl)amide [Compound 68]”, the IC50 in the data set on H5V cells (setting [2]) was 500 nM; with H5V cells (setting [3]) it was 160 nM.

For “Palladium 3^1-oxo-15-methoxycarbonylmethyl-Rhodobacteriochlorin-13^1-(2-N^2-dimethylaminoethyl)amide-17^3-(glycosyl) amide [Compound 75]”, the concentration for half-maximal inhibition (IC50) is 500 nM in the data set on H5V cells (setting [2]) and 160 nM in the data set with H5V cells (setting [3]).

As to “Palladium 3^1-oxo-15-methoxycarbonylmethyl-Rhodobacteriochlorin-13^1-(2-N^3-trimethylammoniumethyl)amide acetate (salt) [Compound 24]”, the results for the IC50 with H5V cells (setting [2]) and in the data set on H5V cells (setting [3]) were 2400 nM and 1200 nM, respectively.

Take “Palladium 3^1-oxo-15-methoxycarbonylmethyl-Rhodobacteriochlorin-13^1-(3-aminopropyl)amide-17^3-(2,3-dihydroxypropyl)amide [Compound 60]”: the results for the IC50 in the data set on H5V cells (setting [2]) and with H5V cells (setting [3]) were 620 nM and 240 nM, respectively.
